# Patent publication US11214803B2, “Modulators of YAP1 expression” (Ionis Pharmaceuticals, Inc., priority 2019, dated 2022)
# How the values were obtained:
# [1] = system: Yap1 mRNA; assay: Dose-dependent inhibition of human Yap1 in SNU-449 cells (Example 9, RTS36584); type: cell-based; details: free uptake; for % UTC (Yap1 mRNA): approximately 48 hours; for IC50: linear regression on a log/linear plot
# Method in brief: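 SNU-449 cells (10,000/well) took up modified oligonucleotides by free uptake at a range of doses for about 48 h. Yap1 mRNA was quantified with primer-probe set RTS36584, normalised to RIBOGREEN total RNA and expressed as % untreated control; IC50 from linear regression on log/linear plot.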
# [2] = Tolerability in Sprague-Dawley rats, body and organ weights (Example 22); type: in vivo; details: male Sprague-Dawley rats, 50 mg/kg s.c. weekly for 6 weeks (7 doses); for Kidney weight / Liver weight / Spleen weight: end of study; for body weight: terminal, prior to necropsy
# Protocol: Terminal body weight was measured prior to necropsy. Ionis oligonucleotides that caused any changes in organ weights outside the expected range for modified oligonucleotides were excluded from further studies.
# [3] = system: Yap1 mRNA; assay: Yap1 mRNA in SCC25 cells, RNA analysis (Example 25); type: cell-based, human; details: free uptake, 48 hours, RTS4814, normalized to actin-beta
# Protocol: (§1) Modified oligonucleotides described in the studies above were tested at various doses in squamous cell carcinoma cell SCC25. A control oligonucleotide 792169 (a 3-10-3 cET gapmer with a full phosphorothioate backbone, […], designated herein as SEQ ID No.: 2940; is not complementary to any known human gene) was also tested.
# Cultured SCC25 cells at a density of 5,000 cells per well were treated using free uptake with modified oligonucleotides diluted to concentrations described in the tables below. After approximately 48 hours, Yap1 mRNA levels were measured as previously described using the Human Yap1 primer-probe set RTS4814. Yap1 mRNA levels were normalized to actin-beta content, as measured by primer probe set RTS5002 (forward sequence […], designated herein as SEQ ID NO.: 20; reverse sequence […], designated herein as SEQ ID NO.: 21; probe sequence […], designated herein as SEQ ID NO.: 22). Results are presented in the tables below as percent control of the amount of Yap1 mRNA relative to untreated control cells (% UTC).
# [4] = system: SCC25 cells; assay: Cell proliferation assay in SCC25 cells, CellTiter-Glo (Example 25); type: cell-based, human; details: free uptake, 144 hours
# Protocol: as §1
# Cultured SCC25 cells at a density of 1,000 cells/well were treated using free uptake with modified oligonucleotides diluted to concentrations described in the tables below. After approximately 144 hours, cell proliferation was measured using the luminescent cell viability CellTiter-Glo® 2.0 Assay (Promega). Results are presented in the tables below as percent control of the amount of luminescence in samples treated with modified oligonucleotides relative to untreated control cells (% UTC).
# [5] = system: Yap1 mRNA; assay: Inhibition of human Yap1 mRNA in SNU449 hepatocellular carcinoma xenograft tumors (Example 26); type: in vivo; details: SNU449 xenografts in NSG mice, 50 mg/kg twice weekly for five days, relative to PBS treated animals
# Method in brief: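 Female NSG mice bearing subcutaneous SNU449 xenografts (about 100 mm^3) dosed with modified oligonucleotides at 50 mg/kg twice weekly for five days, four per group. Tumour Yap1 mRNA measured by RT-qPCR, normalized to actin-beta, expressed as % of PBS-treated controls.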
# [6] = Cynomolgus monkey tolerability, pro-inflammatory proteins analysis, Complement C3 and CRP (Example 34); type: in vivo; details: cynomolgus monkeys, 35 mg/kg subcutaneously; for CRP: day 44
# Protocol: To evaluate any inflammatory effect of Ionis oligonucleotides in cynomolgus monkeys, blood samples were taken for analysis. The monkeys were fasted overnight prior to blood collection. On day 42 (pre-dose and 24 hours post-dose), approximately 0.8 mL of blood was collected from each animal and put into tubes without anticoagulant for serum separation. […] Complement C3 were measured using a Toshiba 120 FR NEO chemistry analyzer (Toshiba Co., Japan). […] Another marker of inflammation, C-Reactive Protein (CRP) was tested together with the clinical chemistry parameters tested for liver function above.
# [7] = Cynomolgus monkey tolerability, hematology (Example 34); type: in vivo, cynomolgus monkeys; details: for BAS / EOS / HCT / HGB / LUC / LYM / MCH / MCHC / MCV / MON / NEU / PLT / RBC / RCDW / Retic / WBC: cynomolgus monkey, in vivo, sc, 35 mg/kg; for MPV: cynomolgus monkeys, 35 mg/kg subcutaneously, day 44
# Protocol: To evaluate any effect of Ionis oligonucleotides in cynomolgus monkeys on hematologic parameters, blood samples of approximately 0.5 mL of blood was collected from each of the available study animals on day 44. The samples were collected in tubes containing K2-EDTA. Samples were analyzed for red blood cell (RBC) count, Hemoglobin (HGB), Hematocrit (HCT), Mean corpuscular volume (MCV), mean corpuscular hemoglobin (MCH), mean corpuscular hemoglobin concentration (MCHC), RBC Distribution Width (RCDW), reticulocyte count (Retic), platelet count (PLT), mean platelet volume (MPV), white blood cells (WBC) count, individual white blood cell counts, such as that of monocytes (MON), neutrophils (NEU), lymphocytes (LYM), eosinophils (EOS), basophils (BAS), and large unstained cells (LUC) using an ADVIA2120i hematology analyzer (Siemens, USA).
# [8] = cynomolgus monkey, in vivo, sc, 35 mg/kg
# [9] = Cynomolgus monkey tolerability, urine analysis (Example 34); details: cynomolgus monkeys, 35 mg/kg subcutaneously, day 44
substance,measurement,setting,value
"1198623 (CTAAGTAAGGTTTCCC; modified gapmer, further chemistry not given here) [compound 1198623]",% UTC (Yap1 mRNA),[1]; 31.3 nM,48 % UTC
same,% UTC (Yap1 mRNA),[1]; 125.0 nM,24 % UTC
same,% UTC (Yap1 mRNA),[1]; 500.0 nM,5 % UTC
same,% UTC (Yap1 mRNA),[1]; 2000.00 nM,1 % UTC
same,IC50,[1],< 30 nM
same,Kidney weight,[2],3.6 g
same,Liver weight,[2],20 g
same,Spleen weight,[2],1.9 g
same,body weight,[2],472 g
same,"Yap1 mRNA, % UTC",[3]; 0.04 μM,61 % UTC
same,"Yap1 mRNA, % UTC",[3]; 0.2 μM,31 % UTC
same,"Yap1 mRNA, % UTC",[3]; 1 μM,15 % UTC
same,"Yap1 mRNA, % UTC",[3]; 5 μM,10 % UTC
same,cell proliferation (luminescence) % UTC,[4]; 0.04 μM,84 % UTC
same,cell proliferation (luminescence) % UTC,[4]; 0.2 μM,55 % UTC
same,cell proliferation (luminescence) % UTC,[4]; 1 μM,36 % UTC
same,cell proliferation (luminescence) % UTC,[4]; 5 μM,29 % UTC
same,"Yap1 mRNA in tumors, % control",[5],60 % control
same,Complement C3,[6]; Day 42 (pre-dose),105 mg/dL
same,Complement C3,[6]; day 42 (24 hr post-dose),101 mg/dL
same,CRP,[6],2.0 mg/L
same,BAS,[7],0.4%
same,EOS,[7],0.8%
same,HCT,[7],46%
same,HGB,[7],14 g/dL
same,LUC,[7],0.7%
same,LYM,[7],53%
same,MCH,[7],23 pg
same,MCHC,[7],30 g/dL
same,MCV,[7],78 fL
same,MON,[7],2.0%
same,NEU,[7],43%
same,PLT,[7],376 10^3/μL
same,RBC,[7],5.9e+06 µL⁻¹
same,RCDW,[7],13%
same,Retic,[7],1.0%
same,WBC,[7],11700 µL⁻¹
same,MPV,[7],7.8 fL
same,A/G ratio,[8],1.4
same,UALB,[9],0.2 mg/dL
same,UCRE,[9],44 mg/dL
same,UTP,[9],10 mg/dL
"1197270 (TTAAAGTGTATGTCAG; cEt gapmer with 2'-OMe nucleoside, phosphorothioate, further chemistry not given here) [compound 1197270]",% UTC (Yap1 mRNA),[1]; 31.3 nM,43 % UTC
same,% UTC (Yap1 mRNA),[1]; 125.0 nM,23 % UTC
same,% UTC (Yap1 mRNA),[1]; 500.0 nM,8 % UTC
same,% UTC (Yap1 mRNA),[1]; 2000.00 nM,2 % UTC
same,IC50,[1],< 30 nM
same,Kidney weight,[2],3.6 g
same,Liver weight,[2],15 g
same,Spleen weight,[2],2.0 g
same,body weight,[2],374 g
same,"Yap1 mRNA, % UTC",[3]; 0.04 μM,48 % UTC
same,"Yap1 mRNA, % UTC",[3]; 0.2 μM,24 % UTC
same,"Yap1 mRNA, % UTC",[3]; 1 μM,12 % UTC
same,"Yap1 mRNA, % UTC",[3]; 5 μM,7 % UTC
same,cell proliferation (luminescence) % UTC,[4]; 0.04 μM,75 % UTC
same,cell proliferation (luminescence) % UTC,[4]; 0.2 μM,40 % UTC
same,cell proliferation (luminescence) % UTC,[4]; 1 μM,22 % UTC
same,cell proliferation (luminescence) % UTC,[4]; 5 μM,14 % UTC
same,"Yap1 mRNA in tumors, % control",[5],54 % control
same,Complement C3,[6]; Day 42 (pre-dose),103 mg/dL
same,Complement C3,[6]; day 42 (24 hr post-dose),86 mg/dL
same,CRP,[6],9.8 mg/L
same,BAS,[7],0.4%
same,EOS,[7],2.7%
same,HCT,[7],44%
same,HGB,[7],12 g/dL
same,LUC,[7],1.2%
same,LYM,[7],54%
same,MCH,[7],22 pg
same,MCHC,[7],28 g/dL
same,MCV,[7],79 fL
same,MON,[7],3.5%
same,NEU,[7],38%
same,PLT,[7],452 10^3/μL
same,RBC,[7],5.6e+06 µL⁻¹
same,RCDW,[7],12%
same,Retic,[7],1.1%
same,WBC,[7],10600 µL⁻¹
same,MPV,[7],7.1 fL
same,A/G ratio,[8],1.2
same,UALB,[9],1.3 mg/dL
same,UCRE,[9],56 mg/dL
same,UTP,[9],18 mg/dL
"1198831 (CACTTTTACATTAGGA; chemically modified gapmer, further chemistry not given here) [compound 1198831]",% UTC (Yap1 mRNA),[1]; 31.3 nM,74 % UTC
same,% UTC (Yap1 mRNA),[1]; 125.0 nM,33 % UTC
same,% UTC (Yap1 mRNA),[1]; 500.0 nM,10 % UTC
same,% UTC (Yap1 mRNA),[1]; 2000.00 nM,4 % UTC
same,IC50,[1],100 nM
same,Kidney weight,[2],3.3 g
same,Liver weight,[2],19 g
same,Spleen weight,[2],2.0 g
same,body weight,[2],426 g
same,"Yap1 mRNA, % UTC",[3]; 0.04 μM,63 % UTC
same,"Yap1 mRNA, % UTC",[3]; 0.2 μM,36 % UTC
same,"Yap1 mRNA, % UTC",[3]; 1 μM,16 % UTC
same,"Yap1 mRNA, % UTC",[3]; 5 μM,14 % UTC
same,cell proliferation (luminescence) % UTC,[4]; 0.04 μM,88 % UTC
same,cell proliferation (luminescence) % UTC,[4]; 0.2 μM,54 % UTC
same,cell proliferation (luminescence) % UTC,[4]; 1 μM,25 % UTC
same,cell proliferation (luminescence) % UTC,[4]; 5 μM,21 % UTC
same,"Yap1 mRNA in tumors, % control",[5],67 % control
same,Complement C3,[6]; Day 42 (pre-dose),81 mg/dL
same,Complement C3,[6]; day 42 (24 hr post-dose),81 mg/dL
same,CRP,[6],1.1 mg/L
same,BAS,[7],0.3%
same,EOS,[7],2.0%
same,HCT,[7],43%
same,HGB,[7],13 g/dL
same,LUC,[7],0.8%
same,LYM,[7],50%
same,MCH,[7],23 pg
same,MCHC,[7],30 g/dL
same,MCV,[7],76 fL
same,MON,[7],3.3%
same,NEU,[7],44%
same,PLT,[7],377 10^3/μL
same,RBC,[7],5.6e+06 µL⁻¹
same,RCDW,[7],12%
same,Retic,[7],1.0%
same,WBC,[7],7600 µL⁻¹
same,MPV,[7],7.3 fL
same,A/G ratio,[8],1.4
same,UALB,[9],0.1 mg/dL
same,UCRE,[9],46 mg/dL
same,UTP,[9],13 mg/dL
"1198872 (TGTATGTCAGAAGAGT; chemically modified gapmer, further chemistry not given here) [compound 1198872]",% UTC (Yap1 mRNA),[1]; 31.3 nM,49 % UTC
same,% UTC (Yap1 mRNA),[1]; 125.0 nM,21 % UTC
same,% UTC (Yap1 mRNA),[1]; 500.0 nM,6 % UTC
same,% UTC (Yap1 mRNA),[1]; 2000.00 nM,1 % UTC
same,IC50,[1],< 30 nM
same,Kidney weight,[2],3.4 g
same,Liver weight,[2],17 g
same,Spleen weight,[2],1.3 g
same,body weight,[2],417 g
same,"Yap1 mRNA, % UTC",[3]; 0.04 μM,54 % UTC
same,"Yap1 mRNA, % UTC",[3]; 0.2 μM,22 % UTC
same,"Yap1 mRNA, % UTC",[3]; 1 μM,9 % UTC
same,"Yap1 mRNA, % UTC",[3]; 5 μM,7 % UTC
same,cell proliferation (luminescence) % UTC,[4]; 0.04 μM,82 % UTC
same,cell proliferation (luminescence) % UTC,[4]; 0.2 μM,37 % UTC
same,cell proliferation (luminescence) % UTC,[4]; 1 μM,22 % UTC
same,cell proliferation (luminescence) % UTC,[4]; 5 μM,18 % UTC
same,"Yap1 mRNA in tumors, % control",[5],52 % control
same,Complement C3,[6]; Day 42 (pre-dose),103 mg/dL
same,Complement C3,[6]; day 42 (24 hr post-dose),96 mg/dL
same,CRP,[6],1.1 mg/L
same,BAS,[7],0.3%
same,EOS,[7],0.6%
same,HCT,[7],44%
same,HGB,[7],13 g/dL
same,LUC,[7],0.5%
same,LYM,[7],32%
same,MCH,[7],23 pg
same,MCHC,[7],30 g/dL
same,MCV,[7],78 fL
same,MON,[7],2.2%
same,NEU,[7],64%
same,PLT,[7],400 10^3/μL
same,RBC,[7],5.7e+06 µL⁻¹
same,RCDW,[7],12%
same,Retic,[7],1.2%
same,WBC,[7],10400 µL⁻¹
same,MPV,[7],7.1 fL
same,A/G ratio,[8],1.3
same,UALB,[9],0.3 mg/dL
same,UCRE,[9],111 mg/dL
same,UTP,[9],14 mg/dL
